Reference: ChEMBL document CHEMBL1136853, “Synthesis and SAR of vinca alkaloid analogues” (Bioorg Med Chem Lett, 2009)

What was measured:
Type in all cases: functional
[1] = system: HeLa; test: Cytotoxicity against human HeLa cells
[2] = system: MCF7; test: Cytotoxicity against human MCF7 cells
[3] = system: P388; test: Antitumor activity against mouse P388 cells xenografted in mouse assessed as median life span at 4 mg/kg, ip q4d for 3 days measured for 60 days; settings: route intraperitoneal
[4] = system: P388; test: Antitumor activity against mouse P388 cells xenografted in mouse assessed as median life span at 8 mg/kg, ip q4d for 3 days measured for 60 days; settings: route intraperitoneal
[5] = system: P388; test: Antitumor activity against mouse P388 cells xenografted in mouse assessed as median life span at 6 mg/kg, ip q4d for 3 days measured for 60 days; settings: route intraperitoneal
[6] = system: P388; test: Antitumor activity against mouse P388 cells xenografted in mouse assessed as median life span at 12 mg/kg, ip q4d for 3 days measured for 60 days; settings: route intraperitoneal

SMILES	GI50 [1]	GI50 [2]	T/C [3]	T/C [4]	T/C [5]	T/C [6]
CC[C@]1(O)C[C@H]2CN(CCc3c([nH]c4ccccc34)[C@@](C(=O)OC)(c3cc4c(cc3OC)N(C=O)[C@H]3[C@@](O)(C(=O)OC)[C@H](OC(C)=O)[C@]5(CC)C=CCN6CC[C@]43[C@@H]65)C2)C1 [VINCRISTINE]	1.7 nM	1.5 nM	–	–	–	–
CC[C@]1(O)C[C@H]2CN(CCc3c([nH]c4ccc(-c5cccc(F)c5)cc34)[C@@](C(=O)OC)(c3cc4c(cc3OC)N(C)[C@H]3[C@@](O)(C(=O)OC)[C@H](OC(C)=O)[C@]5(CC)CC=CN6CC[C@]43[C@@H]65)C2)C1	300 nM	300 nM	–	–	–	–
CC[C@]1(O)C[C@H]2CN(CCc3c([nH]c4ccc(-c5ccccc5)cc34)[C@@](C(=O)OC)(c3cc4c(cc3OC)N(C)[C@H]3[C@@](O)(C(=O)OC)[C@H](OC(C)=O)[C@]5(CC)CC=CN6CC[C@]43[C@@H]65)C2)C1	400 nM	300 nM	–	–	–	–
CCc1ccc2[nH]c3c(c2c1)CCN1C[C@H](C[C@@](O)(CC)C1)C[C@]3(C(=O)OC)c1cc2c(cc1OC)N(C=O)[C@H]1[C@@](O)(C(=O)OC)[C@H](OC(C)=O)[C@]3(CC)CC=CN4CC[C@]21[C@@H]43	5 nM	10 nM	–	–	–	–
CCC1=C[C@H]2CN(C1)Cc1c([nH]c3ccc(-c4cccc(F)c4)cc13)[C@@](C(=O)OC)(c1cc3c(cc1OC)N(C)[C@H]1[C@@](O)(C(=O)OC)[C@H](OC(C)=O)[C@]4(CC)CC=CN5CC[C@]31[C@@H]54)C2	> 1000 nM	> 1000 nM	–	–	–	–
CC[C@]1(O)C[C@H]2CN(CCc3c([nH]c4ccc(-c5ccccc5)cc34)[C@@](C(=O)OC)(c3cc4c(cc3OC)N(C=O)[C@H]3[C@@](O)(C(=O)OC)[C@H](OC(C)=O)[C@]5(CC)CC=CN6CC[C@]43[C@@H]65)C2)C1	50 nM	35 nM	–	–	–	–
CC[C@]1(O)C[C@H]2CN(CCc3c([nH]c4ccc(N)cc34)[C@@](C(=O)OC)(c3cc4c(cc3OC)N(C)[C@H]3[C@@](O)(C(=O)OC)[C@H](OC(C)=O)[C@]5(CC)CC=CN6CC[C@]43[C@@H]65)C2)C1	200 nM	200 nM	–	–	–	–
CCc1ccc2[nH]c3c(c2c1)CCN1C[C@H](C[C@@](O)(CC)C1)C[C@]3(C(=O)OC)c1cc2c(cc1OC)N(C)[C@H]1[C@@](O)(C(=O)OC)[C@H](OC(C)=O)[C@]3(CC)CC=CN4CC[C@]21[C@@H]43	0.3 nM	0.6 nM	–	–	–	–
CCC1=C[C@H]2CN(C1)Cc1c([nH]c3ccc(-c4ccccc4)cc13)[C@@](C(=O)OC)(c1cc3c(cc1OC)N(C)[C@H]1[C@@](O)(C(=O)OC)[C@H](OC(C)=O)[C@]4(CC)CC=CN5CC[C@]31[C@@H]54)C2	70 nM	300 nM	–	–	–	–
CC[C@]1(O)C[C@H]2CN(CCc3c([nH]c4ccc(SC)cc34)[C@@](C(=O)OC)(c3cc4c(cc3OC)N(C)[C@H]3[C@@](O)(C(=O)OC)[C@H](OC(C)=O)[C@]5(CC)CC=CN6CC[C@]43[C@@H]65)C2)C1	0.6 nM	2 nM	110%	243%	–	–
CCC1=C[C@H](C[C@](C(=O)OC)(c2cc3c(cc2OC)N(C)[C@H]2[C@@](O)(C(=O)OC)[C@H](OC(C)=O)[C@]4(CC)CC=CN5CC[C@]32[C@@H]54)c2[nH]c3ccc(N)cc3c2CC)CNC1	300 nM	600 nM	–	–	–	–
CCSc1ccc2[nH]c3c(c2c1)CN1CC(CC)=C[C@@H](C1)C[C@]3(C(=O)OC)c1cc2c(cc1OC)N(C)[C@H]1[C@@](O)(C(=O)OC)[C@H](OC(C)=O)[C@]3(CC)CC=CN4CC[C@]21[C@@H]43	5 nM	20 nM	–	–	–	–
CC[C@]1(O)C[C@H]2CN(CCc3c([nH]c4ccc(C)cc34)[C@@](C(=O)OC)(c3cc4c(cc3OC)N(C=O)[C@H]3[C@@](O)(C(=O)OC)[C@H](OC(C)=O)[C@]5(CC)CC=CN6CC[C@]43[C@@H]65)C2)C1	1 nM	3 nM	–	–	–	–
CCC1=C[C@H]2CN(C1)Cc1c([nH]c3ccc(C(=O)OC)cc13)[C@@](C(=O)OC)(c1cc3c(cc1OC)N(C)[C@H]1[C@@](O)(C(=O)OC)[C@H](OC(C)=O)[C@]4(CC)CC=CN5CC[C@]31[C@@H]54)C2	30 nM	50 nM	–	–	–	–
CC[C@]1(O)C[C@H]2CN(CCc3c([nH]c4ccc(SCC(=O)O)cc34)[C@@](C(=O)OC)(c3cc4c(cc3OC)N(C)[C@H]3[C@@](O)(C(=O)OC)[C@H](OC(C)=O)[C@]5(CC)CC=CN6CC[C@]43[C@@H]65)C2)C1	50 nM	200 nM	–	–	–	–
CC[C@]1(O)C[C@H]2CN(CCc3c([nH]c4ccc(C(C)=O)cc34)[C@@](C(=O)OC)(c3cc4c(cc3OC)N(C)[C@H]3[C@@](O)(C(=O)OC)[C@H](OC(C)=O)[C@]5(CC)CC=CN6CC[C@]43[C@@H]65)C2)C1	200 nM	100 nM	–	–	–	–
CCC1=C[C@H]2CN(C1)Cc1c([nH]c3ccc(C#N)cc13)[C@@](C(=O)OC)(c1cc3c(cc1OC)N(C)[C@H]1[C@@](O)(C(=O)OC)[C@H](OC(C)=O)[C@]4(CC)CC=CN5CC[C@]31[C@@H]54)C2	1 nM	6 nM	–	–	–	–

SMILES	GI50 [1]	GI50 [2]	T/C [3]	T/C [4]	T/C [5]	T/C [6]
CC[C@]1(O)C[C@H]2CN(CCc3c([nH]c4ccc(C#N)cc34)[C@@](C(=O)OC)(c3cc4c(cc3OC)N(C=O)[C@H]3[C@@](O)(C(=O)OC)[C@H](OC(C)=O)[C@]5(CC)CC=CN6CC[C@]43[C@@H]65)C2)C1	10 nM	4 nM	–	–	–	–
CC[C@]1(O)C[C@H]2CN(CCc3c([nH]c4ccc(SC)cc34)[C@@](C(=O)OC)(c3cc4c(cc3OC)N(C=O)[C@H]3[C@@](O)(C(=O)OC)[C@H](OC(C)=O)[C@]5(CC)CC=CN6CC[C@]43[C@@H]65)C2)C1	3 nM	3 nM	–	–	–	–
C#Cc1ccc2[nH]c3c(c2c1)CN1CC(CC)=C[C@@H](C1)C[C@]3(C(=O)OC)c1cc2c(cc1OC)N(C)[C@H]1[C@@](O)(C(=O)OC)[C@H](OC(C)=O)[C@]3(CC)CC=CN4CC[C@]21[C@@H]43	0.4 nM	5 nM	–	–	–	–
CC[C@]1(O)C[C@H]2CN(CCc3c([nH]c4ccc(N5CCCCC5)cc34)[C@@](C(=O)OC)(c3cc4c(cc3OC)N(C)[C@H]3[C@@](O)(C(=O)OC)[C@H](OC(C)=O)[C@]5(CC)CC=CN6CC[C@]43[C@@H]65)C2)C1	20 nM	30 nM	–	–	–	–
CC[C@]1(O)C[C@H]2CN(CCc3c([nH]c4ccc(C(N)=O)cc34)[C@@](C(=O)OC)(c3cc4c(cc3OC)N(C)[C@H]3[C@@](O)(C(=O)OC)[C@H](OC(C)=O)[C@]5(CC)CC=CN6CC[C@]43[C@@H]65)C2)C1	> 1000 nM	> 1000 nM	–	–	–	–
CC[C@]1(O)C[C@H]2CN(CCc3c([nH]c4ccc(C(=O)OC)cc34)[C@@](C(=O)OC)(c3cc4c(cc3OC)N(C)[C@H]3[C@@](O)(C(=O)OC)[C@H](OC(C)=O)[C@]5(CC)CC=CN6CC[C@]43[C@@H]65)C2)C1	20 nM	30 nM	–	–	–	–
CC[C@]1(O)C[C@H]2CN(CCc3c([nH]c4ccc(C(=O)O)cc34)[C@@](C(=O)OC)(c3cc4c(cc3OC)N(C)[C@H]3[C@@](O)(C(=O)OC)[C@H](OC(C)=O)[C@]5(CC)CC=CN6CC[C@]43[C@@H]65)C2)C1	> 1000 nM	> 1000 nM	–	–	–	–
CCC1=C[C@H]2CN(C1)Cc1c([nH]c3ccc(C(=O)O)cc13)[C@@](C(=O)OC)(c1cc3c(cc1OC)N(C)[C@H]1[C@@](O)(C(=O)OC)[C@H](OC(C)=O)[C@]4(CC)CC=CN5CC[C@]31[C@@H]54)C2	> 1000 nM	> 1000 nM	–	–	–	–
CCC1=C[C@H]2CN(C1)Cc1c([nH]c3ccc(C(C)=O)cc13)[C@@](C(=O)OC)(c1cc3c(cc1OC)N(C)[C@H]1[C@@](O)(C(=O)OC)[C@H](OC(C)=O)[C@]4(CC)CC=CN5CC[C@]31[C@@H]54)C2	4 nM	20 nM	–	–	–	–
CCSc1ccc2[nH]c3c(c2c1)CCN1C[C@H](C[C@@](O)(CC)C1)C[C@]3(C(=O)OC)c1cc2c(cc1OC)N(C)[C@H]1[C@@](O)(C(=O)OC)[C@H](OC(C)=O)[C@]3(CC)CC=CN4CC[C@]21[C@@H]43	2 nM	3 nM	–	–	–	–
CCSc1ccc2[nH]c3c(c2c1)CCN1C[C@H](C[C@@](O)(CC)C1)C[C@]3(C(=O)OC)c1cc2c(cc1OC)N(C=O)[C@H]1[C@@](O)(C(=O)OC)[C@H](OC(C)=O)[C@]3(CC)CC=CN4CC[C@]21[C@@H]43	6 nM	8 nM	–	–	107%	105%
C#Cc1ccc2[nH]c3c(c2c1)CCN1C[C@H](C[C@@](O)(CC)C1)C[C@]3(C(=O)OC)c1cc2c(cc1OC)N(C)[C@H]1[C@@](O)(C(=O)OC)[C@H](OC(C)=O)[C@]3(CC)CC=CN4CC[C@]21[C@@H]43	20 nM	5 nM	–	–	–	–
CC[C@]1(O)C[C@@H]2CN(CCc3c([nH]c4ccccc34)[C@@](C(=O)OC)(c3cc4c(cc3OC)N(C)[C@H]3[C@@](O)(C(=O)OC)[C@H](OC(C)=O)[C@]5(CC)C=CCN6CC[C@]43[C@@H]65)C2)C1 [VINBLASTINE]	0.9 nM	0.4 nM	–	–	–	–
CC[C@]1(O)C[C@H]2CN(CCc3c([nH]c4ccc(-c5nccs5)cc34)[C@@](C(=O)OC)(c3cc4c(cc3OC)N(C)[C@H]3[C@@](O)(C(=O)OC)[C@H](OC(C)=O)[C@]5(CC)CC=CN6CC[C@]43[C@@H]65)C2)C1	200 nM	100 nM	–	–	–	–
CC[C@]1(O)C[C@H]2CN(CCc3c([nH]c4ccc(C#N)cc34)[C@@](C(=O)OC)(c3cc4c(cc3OC)N(C)[C@H]3[C@@](O)(C(=O)OC)[C@H](OC(C)=O)[C@]5(CC)CC=CN6CC[C@]43[C@@H]65)C2)C1	3 nM	3 nM	–	–	–	–
CCC1=C[C@H]2CN(C1)Cc1c([nH]c3ccc(C(N)=O)cc13)[C@@](C(=O)OC)(c1cc3c(cc1OC)N(C)[C@H]1[C@@](O)(C(=O)OC)[C@H](OC(C)=O)[C@]4(CC)CC=CN5CC[C@]31[C@@H]54)C2	> 1000 nM	> 1000 nM	–	–	–	–
